Test results reported in US5283245A, “Heterocyclic thiazole derivatives and pharmaceutical compositions comprising said derivatives” (Imperial Chemical Industries PLC, priority 1989, dated 1994).

Experiments:
[1] = target: T1, 5-LO (Rattus norvegicus, UniProt P12527); assay: ex vivo assay: administration of compound, blood collection, A23187 challenge, LTB4 radioimmunoassay (test c); assay type: in vivo; conditions: oral administration
T1 construct: blood collection, heparinisation, challenge with A23187 and radioimmunoassay of LTB4 and TxB2; endogenous in cells
T1 sequence (P12527 1-673): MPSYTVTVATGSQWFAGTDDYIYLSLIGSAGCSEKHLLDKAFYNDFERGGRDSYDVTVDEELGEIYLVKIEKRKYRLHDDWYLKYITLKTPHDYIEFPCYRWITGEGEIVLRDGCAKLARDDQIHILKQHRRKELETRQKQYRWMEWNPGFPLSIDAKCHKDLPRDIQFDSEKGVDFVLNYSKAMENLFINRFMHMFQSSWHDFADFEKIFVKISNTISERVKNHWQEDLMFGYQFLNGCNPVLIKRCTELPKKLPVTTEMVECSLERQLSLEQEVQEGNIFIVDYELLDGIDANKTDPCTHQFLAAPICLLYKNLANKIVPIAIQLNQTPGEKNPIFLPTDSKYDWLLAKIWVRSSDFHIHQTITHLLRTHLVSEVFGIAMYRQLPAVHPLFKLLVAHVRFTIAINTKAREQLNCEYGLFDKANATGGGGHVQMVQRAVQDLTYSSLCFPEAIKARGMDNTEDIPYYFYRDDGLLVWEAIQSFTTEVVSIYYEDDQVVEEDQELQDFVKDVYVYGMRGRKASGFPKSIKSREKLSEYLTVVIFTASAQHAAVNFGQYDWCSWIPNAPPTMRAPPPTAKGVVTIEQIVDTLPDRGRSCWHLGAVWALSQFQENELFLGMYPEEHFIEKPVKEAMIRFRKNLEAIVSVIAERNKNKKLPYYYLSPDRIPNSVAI

[2] = target: T2, cyclooxygenase (Homo sapiens, UniProt P23219); assay: heparinised human blood challenged with calcium ionophore A23187, TxB2 radioimmunoassay (test b); assay type: cell-based; conditions: A23187 challenge
T2 construct: incubating a test compound with heparinised human blood; endogenous in cells; host or cells: heparinised whole human blood (platelets, by own knowledge)
Procedure: (§1) b) An in vitro assay system involving incubating a test compound with heparinised human blood, prior to challenge with the calcium ionophore A23187 and then indirectly measuring the inhibitory effects on 5-LO by assaying the amount of LTB4 using the specific radioimmunoassay described by Carey and Forder (F. Carey and R. A. Forder, Brit. J. Pharmacol. 1985, 84, 34P) which involves the use of a protein-LTB4 conjugate produced using the procedure of Young et alia (Prostaglandins, 1983, 26(4),605-613). The effects of a test compound on the enzyme cyclooxygenase (which is involved in the alternative metabolic pathway for arachidonic acid and gives rise to prostaglandins, thromboxanes and related metabolites) may be measured at the same time using the specific radioimmunoassay for thromboxane B2 (TxB2) described by Carey and Forder (see above). This test provides an indication of the effects of a test compound against 5-LO and also cyclooxygenase in the presence of blood cells and proteins. It permits the selectivity of the inhibitory effect on 5-LO or cyclooxygenase to be assessed.

[3] = target: T3, 5-LO (Homo sapiens, UniProt P09917); assay: heparinised human blood challenged with calcium ionophore A23187, LTB4 radioimmunoassay (test b); assay type: cell-based; conditions: A23187 challenge
T3 construct: incubating a test compound with heparinised human blood; endogenous in cells; host or cells: heparinised whole human blood (leukocytes, by own knowledge)
T3 sequence (P09917 1-674): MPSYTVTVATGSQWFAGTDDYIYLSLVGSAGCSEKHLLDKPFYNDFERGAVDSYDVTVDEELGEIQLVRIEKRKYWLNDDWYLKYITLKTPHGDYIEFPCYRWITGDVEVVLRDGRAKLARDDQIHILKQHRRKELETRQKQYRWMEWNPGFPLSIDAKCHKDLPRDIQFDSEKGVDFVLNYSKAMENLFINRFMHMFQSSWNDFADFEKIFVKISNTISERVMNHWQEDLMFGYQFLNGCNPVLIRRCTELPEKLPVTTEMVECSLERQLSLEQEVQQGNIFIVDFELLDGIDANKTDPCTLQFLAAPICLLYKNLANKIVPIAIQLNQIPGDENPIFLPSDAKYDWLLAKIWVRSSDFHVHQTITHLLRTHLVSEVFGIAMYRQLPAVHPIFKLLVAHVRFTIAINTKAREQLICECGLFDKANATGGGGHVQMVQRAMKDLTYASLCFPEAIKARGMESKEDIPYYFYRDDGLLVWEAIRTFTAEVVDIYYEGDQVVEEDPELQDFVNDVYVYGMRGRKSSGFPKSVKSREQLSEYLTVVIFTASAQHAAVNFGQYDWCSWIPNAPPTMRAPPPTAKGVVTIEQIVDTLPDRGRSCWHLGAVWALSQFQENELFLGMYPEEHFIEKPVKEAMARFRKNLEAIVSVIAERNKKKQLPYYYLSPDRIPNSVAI
Procedure: as §1

T2 sequence (P23219 24-599): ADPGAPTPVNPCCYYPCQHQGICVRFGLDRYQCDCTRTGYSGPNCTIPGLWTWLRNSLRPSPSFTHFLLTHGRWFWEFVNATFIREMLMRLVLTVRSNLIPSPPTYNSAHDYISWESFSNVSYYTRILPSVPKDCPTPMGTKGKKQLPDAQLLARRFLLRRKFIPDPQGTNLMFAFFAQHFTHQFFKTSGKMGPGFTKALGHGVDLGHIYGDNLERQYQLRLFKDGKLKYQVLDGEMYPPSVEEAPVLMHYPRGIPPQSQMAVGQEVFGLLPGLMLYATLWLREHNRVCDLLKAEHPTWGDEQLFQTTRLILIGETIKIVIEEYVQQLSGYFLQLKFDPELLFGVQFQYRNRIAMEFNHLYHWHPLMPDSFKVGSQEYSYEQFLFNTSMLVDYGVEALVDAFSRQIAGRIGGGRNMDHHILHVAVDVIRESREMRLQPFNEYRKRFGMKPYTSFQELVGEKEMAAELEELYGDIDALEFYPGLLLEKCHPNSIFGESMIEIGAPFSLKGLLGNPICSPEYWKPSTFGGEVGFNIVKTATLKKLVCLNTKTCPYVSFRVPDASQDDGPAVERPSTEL

Structure (SMILES): CCC(OC)(c1cccc(OCC#Cc2ccccn2)c1)c1nccs1 (stereo not drawn) [2-[1-[3-(3-(2-pyridyl)prop-2-yn-1-yloxy)phenyl]-1-methoxypropyl]thiazole]
- ED50 [1]: 50 mg/kg
- IC50 [2]: > 40000 nM
- IC50 [3]: 700 nM
